Among the data in PubChem BioAssay AID1159564 (GlaxoSmithKline (GSK), 2015) are IC50 values, retold here.

Structures are written as SMILES. Activity calls are given as the source filed them. The rule behind the calls is not given here.

This assay concerns L. donovani-infected THP-1 macrophages, intracellular amastigote imaging. The experiment in a line: intracellular L. donovani amastigote inhibition, imaging, THP-1 host macrophages, host toxicity (AID 1159564).
Setting [1] is: measured here: THP-1 host cell toxicity.
Setting [2] is: measured here: amastigotes per macrophage.

Take `N#Cc1cc([N+](=O)[O-])ccc1NC1CCCCCC1`: the IC50 (as a rule, the point on the concentration scale where inhibition reaches its midpoint) was > 50 µM (inactive). In addition, the IC50 under setting [1] was above 50 µM. In addition, the IC50 under setting [2] is above 50 µM.

As to `COc1cc(-c2nc(N3CCOCC3)sc2-c2ccnc(NC3CCOCC3)n2)ccc1Cl`, the IC50 was > 50 µM (inactive). The compound also yielded an IC50 under setting [1] above 50 µM. Further, the IC50 under setting [2] was 0.02 µM.

For the compound `O=C(NCCc1ccccc1Cl)c1cccn1-c1cccnc1`, the IC50 was > 50 µM (inactive). Moreover, the IC50 under setting [1] is above 50 µM. The compound further yielded an IC50 under setting [2] above 50 µM.

For `CC(C)C[C@H](NC(=O)c1ccc(-c2ccccc2)o1)C(=O)NC1(C#N)CC1`, the IC50 is > 50 µM (inactive). For the same compound, under setting [1], the IC50 was above 50 µM. Moreover, under setting [2], the concentration for half-maximal inhibition (IC50) was 16 µM.

Consider `CN(Cc1cccnc1)Cc1ccc(N2CCN(C(=O)C3(c4ccc(Cl)cc4)CC3)CC2)nc1`, for which the IC50 was > 50 µM (inactive). Also, the half-maximal inhibitory concentration (IC50) under setting [1] came to 10 µM. The same compound showed a half-maximal inhibitory concentration (IC50) under setting [2] above 50 µM.

Consider `CS(=O)(=O)c1ccccc1C(=O)N(Cc1ccccc1)c1ccccc1`, for which the IC50 is > 50 µM (inactive). In addition, the IC50 under setting [1] was above 50 µM. The same compound showed an IC50 under setting [2] of 16 µM.

On to `Cc1cc(C)n(-c2nc(NC(C)C)nc(NC(C)(C)C)n2)n1`, for which the IC50 is 5 µM. Under setting [1], this compound gave an IC50 of 6.3 µM. The compound further yielded an IC50 under setting [2] of 4 µM.

`c1cc(-c2ncc(-c3ccn[nH]3)s2)ccn1`: the IC50 was > 50 µM (inactive). In addition, under setting [1], the IC50 is above 50 µM. Under setting [2], the IC50 worked out at 10 µM.

As to `CNc1nc(C)nc(N2CCc3cc(C(=O)NCc4ccc(-c5ccn[nH]5)cc4Cl)ccc32)n1`, the IC50 is 0.32 µM. Besides, under setting [1], the IC50 is above 50 µM. The IC50 under setting [2] is 0.4 µM.

On to `Cc1nc(C(=O)Nc2ccc3c(c2)OCO3)nn1-c1ccc(Cl)cc1`, for which the IC50 was 2 µM. The compound also showed an IC50 under setting [1] of 13 µM. This compound also gave an IC50 under setting [2] of 1.6 µM.

Take `CC(=O)Nc1ccc(-c2noc(CC3CCCN(Cc4cccc(F)c4C)C3)n2)cc1` (stereo unspecified): the IC50 is 32 µM. Further, the IC50 under setting [1] was above 50 µM. Under setting [2], this compound displayed a concentration for half-maximal inhibition (IC50) of 13 µM.

Turning to `Cc1ccc2c(c1)-c1onc(C(=O)N3CCCCC3c3cccnc3)c1CO2` (stereo unspecified), the IC50 is > 50 µM (inactive). Also, the IC50 under setting [1] was 40 µM. The IC50 under setting [2] was 40 µM.

For `COc1ccc(C(=O)N2CCC(Nc3cccnc3)C2)c(OC)n1` (stereo unspecified), the IC50 was > 50 µM (inactive). Under setting [1], this compound returned an IC50 above 50 µM. Further, under setting [2], the IC50 was above 50 µM.

In the case of `O=C(CN(Cc1ccccn1)Cc1ccccn1)NC1Cc2ccccc2C1`, the IC50 was 5 µM. Under setting [1], the IC50 was above 79 µM. Under setting [2], this compound gave an IC50 of 5 µM.

`O=C(Cn1cnc2c(-c3ccccc3)csc2c1=O)N1CCCCC1`: the IC50 was > 50 µM (inactive). Also, the concentration for half-maximal inhibition (IC50) under setting [1] is above 50 µM. For the same compound, under setting [2], the IC50 is above 50 µM.

For `C=CCN(Cc1cccs1)C(=O)CSc1nnc(-c2ccc3c(c2)OCO3)o1`, the IC50 is 3.2 µM. The compound further gave an IC50 under setting [1] above 50 µM. In addition, the IC50 under setting [2] was determined as 1.3 µM.

As to `Cc1cc(NC(=O)C2CCCCC2)n(-c2nc3c(c(=O)[nH]2)CCC3)n1`, the IC50 was 5 µM. In addition, under setting [1], the IC50 stood at 10 µM. The compound further had an IC50 under setting [2] of 3.2 µM.

Take `NCc1csc(Nc2cc(Oc3ccccc3)ncn2)n1`: the IC50 was 25 µM. Moreover, under setting [1], the IC50 was above 50 µM. Besides, the IC50 under setting [2] was determined as 25 µM.

Regarding `CCCn1c(NC(=O)Cc2ccc(Cl)cc2)nc2ccccc21`, the 50% inhibitory concentration (IC50) was 5 µM. The IC50 under setting [1] was above 50 µM. Besides, under setting [2], the half-inhibitory concentration (IC50) was 3.2 µM.

In the case of `CCNc1cc(-c2ccccn2)nc(Nc2ccc(OC)cc2)n1`, the half-inhibitory concentration (IC50) is 0.5 µM. Moreover, the IC50 under setting [1] came to 25 µM. The same compound showed an IC50 under setting [2] of 0.4 µM.

On to `COc1ccc2ncc(F)c(CCN3CC[C@@H](NC(=O)c4cc5c(s4)CCC5)[C@@H](O)C3)c2n1`, for which the IC50 is 6.3 µM. In addition, the IC50 under setting [1] turned out to be 25 µM. Further, the IC50 under setting [2] worked out at 1.3 µM.

As to `COc1ccc(S(=O)(=O)Nc2ccc(C(=O)Nc3nc(-c4ccccn4)cs3)cc2)cc1`, the IC50 was 0.4 µM. Moreover, under setting [1], the IC50 turned out to be 10 µM. The same compound had an IC50 under setting [2] of 0.16 µM.

Take `CS(=O)(=O)c1ccc(Nc2nccc(Nc3n[nH]c4ccc(F)cc34)n2)c(F)c1`: the half-inhibitory concentration (IC50) is 13 µM. Besides, the half-inhibitory concentration (IC50) under setting [1] came out at 16 µM. In addition, the IC50 under setting [2] was 10 µM.

`Cc1ccc(Nc2nc(C3CCCN3Cc3ccn[nH]3)cs2)nc1` (stereo unspecified): the IC50 is 1.6 µM. Under setting [1], this compound had an IC50 of 25 µM. The same compound returned an IC50 under setting [2] of 1.3 µM.

`CCOC(=O)c1noc(N)c1-c1ccccc1`: the IC50 was > 50 µM (inactive). Moreover, the 50% inhibitory concentration (IC50) under setting [1] was above 50 µM. Besides, under setting [2], the IC50 is above 50 µM.

With `COc1ccc(S(=O)(=O)NCc2ccc(-c3ccc(CN(C)CCO)cc3)cc2)cc1`, the IC50 is 16 µM. Under setting [1], this compound gave an IC50 of 20 µM. Further, the IC50 under setting [2] turned out to be 20 µM.

For the compound `COc1ccc(-c2cnc(NC(=O)c3cc(-c4ccccn4)n[nH]3)n2C)cc1`, the IC50 was 1 µM. In addition, under setting [1], the IC50 is above 50 µM. The compound further showed an IC50 under setting [2] of 0.79 µM.
